This note sets out measurements from patent EP0736302A2, “Protease inhibitors, a DNA construct for the expression of a protease and a process for measuring proteases and/or protease inhibitors” (Stichting REGA V.Z.W., priority 1995, dated 1996).

In brackets after ≈: the same amount, converted by molar mass. Entries after “also recorded” stand apart in the source; their conditions may differ. Structures can show the parent of a compound that is named as a salt.

In experiment [1] the target is T1, gelatinase B from neutrophils (Homo sapiens, UniProt P14780). Nature of the experiment: gelatinase microtiter plate assay (digestion of biotinylated gelatin, inhibition factor). Format: biochemical. On the set-up: endogenous in cells; host or cells: human neutrophils stimulated with lipopolysaccharide; conditioned medium. Conditions: crude neutrophil gelatinase B, '-' = no inhibitory activity. The protocol:
The measurement of gelatinase activity was based on the detection of non-degraded biotinylated gelatin with a streptavidin-peroxidase conjugate. This test is based on the biotin-avidin method described by Sorbi et al. (25) but modified to a one plate assay (schematically represented in Fig. 1.). Gelatin (1mg/ml) was dissolved in 0.1 M sodium bicarbonate pH 8.3 by heating to 40°C. Biotin-N-hydroxysuccinimide ester was dissolved in dimethylsulfoxide (Me2SO) and was added to the gelatin in a 15-fold molar excess. The mixture was allowed to react overnight at 4°C and the biotinylated gelatin was then dialyzed against phosphate buffered saline (PBS). Neutrophil granulocyte (Neu) medium was collected from human neutrophils after stimulation with lipopolysaccharide (1µg/ml) overnight at 37°C in Minimal Essential Medium. Cells were removed by 10 min centrifugation at 1000 g. Purified gelatinase was obtained by one-step affinity chromatography of neutrophil medium on a gelatin-sepharose column as described (8).
Modified flat bottom 96-well ELISA plates were coated overnight with 0.5 µg/ml avidin in distilled water. The plates were then blocked with 0.3% bovine serum albumin (BSA, Sigma) in PBS for 1 hour at 37°C. Biotinylated gelatin was diluted to 50 µg/ml and 100µl was added to the avidin-coated wells. After incubation for one hour at 20°C, the plate was rinsed with PBS. Medium containing the secreted gelatinases from human neutrophils (dilution range 1/3-1/3^11) and the inhibitors were diluted in incubation buffer (50 mM Tris-HCl pH 7.5, 10 mM CaCl2, 0.02% (W/V) NaN3, 1% (V/V) Triton X-100) and 100 µl of each were mixed. 190 µl of the mixture was added to the gelatin-coated plates and allowed to digest the gelatin overnight at 37°C. The plates were then washed with PBS and each well was incubated with 100 µl peroxidase-conjugated-streptavidin at a 1:2000 dilution for 1 hour at 37°C. After rinsing the plate, the ABTS substrate was added (0.5 mg/ml solution containing 0.1 M citric acid, 0.2 M Na2HPO4, pH 4.3, 0.07 µl/ml 30% H2O2) and the optical density was read at 405 nm after 10 min. incubation at room temperature.
Gelatin is biotinylated and bound to avidin-coated microtiter plates. By addition of gelatinases the number of free biotin groups decreases and proportionally less streptavidin-peroxidase is bound to the residual substrate. Bound streptavidin-peroxidase activity is measured spectrophotometrically by reaction of peroxide with ABTS. Inhibition of gelatinase is obtained by the addition of inhibitor to a known amount of gelatinase prior to application to the plates. The peroxidase activity increases proportionally with the inhibitory activity.
The titration curves of gelatinase inhibition were always related to a blanc curve and this for enzyme concentrations within the slope of the curve (vertical dotted lines Fig. 3). The decrease in enzyme activity to which the inhibitor-incubated sample corresponded was defined as the inhibition factor (IF).
The titration curves of gelatinase inhibition by tetracyclines were always related to a blanc curve and this for enzyme concentrations within the slope of the curve (vertical dotted lines Fig. 3). The decrease in enzyme activity to which the tetracycline incubated sample corresponded was defined as the inhibition factor (IF).

In experiment [2] the target is T1, gelatinase B from neutrophils. In words: quantitative gelatin zymography with inhibitor in the developing buffer. Format: biochemical. Also noted: A standard preparation of gelatinase B from neutrophils was repetitiously loaded; endogenous in cells; host or cells: human neutrophils. Conditions: increasing amounts of inhibitor in developing buffer (Fig. 4).
Description: Quantitative zymography was performed as described (7,8). Briefly, 40 µl of loading buffer was added to 40 µl of each sample and applied on 7.5% polyacrylamide gels which had been co-polymerised with 0.1% (w/v) gelatin. Stacking gels contained 5% polyacrylamide. The gels were run at 4°C for 16h at 90V. The gels were then incubated in washing buffer (50 mM Tris-HCl pH 7.5, 10mM CaCl2, O.O2% (W/V) NaN3, 2.5% (v/v) Triton X-100) at room temperature, 2x20 min to remove sodium dodecyl sulfate and overnight in developing buffer (50 mM Tris-HCl pH 7.5, 10mM CaCl2, O.O2% (w/v) NaN3, 1% (v/v) Triton X-100) at 37°C. The gels were then stained in Coomassie brilliant blue R-250 and destained in methanol/acetic acid. The sites of gelatinase activity appeared as unstained bands on a blue background and were quantified by computerised image analysis through scanning densitometry with a PDI scanner (Pharmacia, Belgium) and the PDI software package. For inhibition experiments, the inhibitors were dissolved in the developing buffer at the appropriate concentration. […] The enzyme activity was developed by staining of the substrate with Coomassie blue and quantification of the substrate digestion by scanning densitometry. […] The enzyme activity was developed by staining of the substrate with Coomassie blue and quantification of the substrate digestion by scanning densitometry. […]
For a further experiment, the system named is Biozzi AB/H mice. Nature of the experiment: chronic relapsing experimental allergic encephalomyelitis. Format: in vivo. The settings on record: 750 µg three times weekly from day 22 onwards, after full-blown disease (Fig. 16).
Experiment [3] deals with gelatinase B. In words: inhibition of homogeneous enzyme (ID50). The class given is biochemical.
The test system of a further experiment is SJL mice. Nature of the experiment: acute (hyperacute) experimental allergic encephalomyelitis. The settings on record: intraperitoneally, equivalent of 27 to 375 µg per mouse daily (Fig. 15).
Experiment [4] deals with T2, Gelatinase B (Homo sapiens, UniProt P14780).
T2 construct: Gelatinase A and B, detected by zymography in the cerebrospinal fluid of MS patients; from tissue; host or cells: cerebrospinal fluid of patients with multiple sclerosis or optic neuritis
In words: zymography of cerebrospinal fluid of MS / optic neuritis patients with inhibitor. Conditions: CSF of MS patients, increasing concentrations (Fig. 13). Format: biochemical. The protocol:
(§1) Quantitative zymography was performed as described (7,8). Briefly, 40 µl of loading buffer was added to 40 µl of each sample and applied on 7.5% polyacrylamide gels which had been co-polymerised with 0.1% (w/v) gelatin. Stacking gels contained 5% polyacrylamide. The gels were run at 4°C for 16h at 90V. The gels were then incubated in washing buffer (50 mM Tris-HCl pH 7.5, 10mM CaCl2, O.O2% (W/V) NaN3, 2.5% (v/v) Triton X-100) at room temperature, 2x20 min to remove sodium dodecyl sulfate and overnight in developing buffer (50 mM Tris-HCl pH 7.5, 10mM CaCl2, O.O2% (w/v) NaN3, 1% (v/v) Triton X-100) at 37°C. […] The sites of gelatinase activity appeared as unstained bands on a blue background and were quantified by computerised image analysis through scanning densitometry with a PDI scanner (Pharmacia, Belgium) and the PDI software package. […]
(§2) Similar results were obtained when pure preparations of gelatinase B were tested or when gelatinase B was measured in the presence of D-penicillamine in body fluids or cell supernatants.
(§3) Figure 13. […] Gelatinase A (---) and B(_) activities in the CSF were measured by zymography in the absence or the presence of increasing concentrations of D-penicillamine. The scanning indices for each patient are calculated at the residual activity in the presence of inhibitor versus the activity without inhibitor. […]

In a further experiment the target is T3, Gelatinase A (Homo sapiens, UniProt P08253).
T3 construct: Gelatinase A and B, detected by zymography in the cerebrospinal fluid of MS patients; from tissue; host or cells: cerebrospinal fluid of patients with multiple sclerosis or optic neuritis
T3 sequence (P08253 110-660): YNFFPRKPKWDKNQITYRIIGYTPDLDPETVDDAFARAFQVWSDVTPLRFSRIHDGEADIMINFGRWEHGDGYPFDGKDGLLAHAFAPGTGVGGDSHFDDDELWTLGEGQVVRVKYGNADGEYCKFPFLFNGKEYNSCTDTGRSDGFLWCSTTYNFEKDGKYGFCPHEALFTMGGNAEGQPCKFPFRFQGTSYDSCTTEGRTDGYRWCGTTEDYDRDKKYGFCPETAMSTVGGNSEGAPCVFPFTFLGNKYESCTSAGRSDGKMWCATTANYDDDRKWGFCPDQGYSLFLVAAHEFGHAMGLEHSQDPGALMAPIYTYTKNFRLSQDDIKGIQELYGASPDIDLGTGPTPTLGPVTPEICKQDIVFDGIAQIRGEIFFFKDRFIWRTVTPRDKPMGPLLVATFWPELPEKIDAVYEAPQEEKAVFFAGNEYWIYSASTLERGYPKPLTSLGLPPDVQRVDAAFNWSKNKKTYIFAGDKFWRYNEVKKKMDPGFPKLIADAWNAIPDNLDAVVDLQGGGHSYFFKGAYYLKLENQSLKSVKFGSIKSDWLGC
Described as above. Format: biochemical. The settings on record: CSF of MS patients, increasing concentrations (Fig. 13). The protocol:
as §1, §2, §3

Experiment [5] concerns human monocytic cell line THP-1. In words: cellular gelatinase B protein and mRNA production (northern blot, zymography). Format: cell-based. Conditions: THP-1, LPS 1µg/ml, retinoic acid 100nM or untreated; DPEN 50 µg/ml; 16 h (Fig. 14). The protocol:
Figure 14. […] Cultures of the human monocytic cell line THP-1 were stimulated with lipopolysaccharide (LPS, 1µg/ml), retinoic acid (RA, 100nM) or left untreated (CO) in the presence or absence of D-penicillamine (DPEN, 50 µg/ml). After 16 h total RNA was extracted and gelatinase B mRNA was measured by northern blot analysis with a human probe (41) (a). Gelatinase B protein in the cell culture fluids was assayed by zymographic analysis on gelatin substrate gels (b).

[6] abbreviates: tetracycline concentration 1.67 mg/ml.
The mark [7] stands for this setting: tetracycline concentration 3.33 mg/ml.
Setting [8] is: tetracycline concentration 0,83 mg/ml.

T1 sequence (P14780 94-707): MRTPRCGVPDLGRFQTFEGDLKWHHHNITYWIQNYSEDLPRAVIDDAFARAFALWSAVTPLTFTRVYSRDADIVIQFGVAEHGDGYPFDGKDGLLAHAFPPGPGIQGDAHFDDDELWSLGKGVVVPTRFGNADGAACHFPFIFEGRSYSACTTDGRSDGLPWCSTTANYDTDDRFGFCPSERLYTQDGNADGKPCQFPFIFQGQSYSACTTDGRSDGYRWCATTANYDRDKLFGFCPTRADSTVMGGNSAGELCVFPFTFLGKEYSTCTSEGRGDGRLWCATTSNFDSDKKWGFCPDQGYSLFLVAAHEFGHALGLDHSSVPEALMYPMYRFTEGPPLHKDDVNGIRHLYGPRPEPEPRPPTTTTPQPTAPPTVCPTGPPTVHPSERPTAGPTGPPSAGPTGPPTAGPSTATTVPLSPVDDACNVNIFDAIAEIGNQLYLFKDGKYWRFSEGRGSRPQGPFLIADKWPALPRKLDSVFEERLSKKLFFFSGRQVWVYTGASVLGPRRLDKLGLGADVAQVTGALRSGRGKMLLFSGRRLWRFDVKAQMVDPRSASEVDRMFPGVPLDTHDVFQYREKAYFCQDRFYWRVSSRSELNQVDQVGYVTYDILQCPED
T2 sequence (P14780 94-707): as above
Description for SJL mice: In both hind paws 50µl of this emulsion was injected on day 0. On day 0 and 2, 50µl B.pertussis (200x10^9 bacteria/ml) were injected intraveneously. […] The control group received injections with 0.9% NaCl, used as excipiens. The animals were daily monitored and the disease and mortality were scored.).

In the case of α-apooxytetracycline base, the “Inhibition factor (IF)” value in experiment [1] (setting [6]) is 3; in experiment [1] (setting [7]) it was 9.
Turning to β-apooxytetracycline base, in experiment [1] (setting [7]), the “Inhibition factor (IF)” value was found to be 3.
`C=C1c2cccc(O)c2C(=O)C2=C(O)[C@]3(O)C(=O)C(C(N)=O)=C(O)[C@@H](N(C)C)[C@@H]3[C@@H](O)[C@H]12` [metacycline HCl]: the “Inhibition factor (IF)” value is 3 in experiment [1] (setting [8]), 8 in experiment [1] (setting [6]) and 27 in experiment [1] (setting [7]).
`CN(C)[C@@H]1C(O)=C(C(N)=O)C(=O)[C@@]2(O)C(O)=C3C(=O)c4c(O)cccc4C[C@H]3C[C@@H]12` [6-deoxy-6-demethyltetracycline HCl]: the entries for the “Inhibition factor (IF)” value in experiment [1] (setting [8]), in experiment [1] (setting [6]) and in experiment [1] (setting [7]) were 3, 5 and 8, respectively.
Regarding `CN(C)[C@H]1C(O)=C(C(N)=O)C(=O)[C@@]2(O)C(O)=C3C(=O)c4c(O)ccc(Cl)c4[C@@](C)(O)[C@H]3C[C@@H]12` [4-epichlortetracycline HCl], in experiment [1] (setting [7]), the “Inhibition factor (IF)” value was “precipitation”.
Take `CN(C)[C@@H]1C(=O)C(C(N)=O)=C(O)[C@@]2(O)C(=O)C[C@@H]([C@]3(C)OC(=O)c4c(O)ccc(Cl)c43)C[C@@H]12` [isochlortetracycline HCl]: the “Inhibition factor (IF)” value in experiment [1] (setting [7]) is 3.
For 4-epitetracycline HCl, in experiment [1] (setting [6]), the “Inhibition factor (IF)” value is on record as 3.
For the molecule `CN(C)c1ccc(O)c2c1C[C@H]1C[C@H]3[C@H](N(C)C)C(O)=C(C(N)=O)C(=O)[C@@]3(O)C(O)=C1C2=O` [minocycline HCl], the “inhibition of gelatinase B on zymography” value in experiment [2] is reported as “inhibits gelatinase B in a dose-dependent way”. The “Inhibition factor (IF)” value was found to be 3 in experiment [1] (setting [6]) and 8 in experiment [1] (setting [7]).
Regarding `CN(C)[C@@H]1C(O)=C(C(N)=O)C(=O)[C@@]2(O)C(O)=C3C(=O)c4c(O)ccc(Cl)c4[C@@](C)(O)[C@H]3C[C@@H]12` [chlortetracycline HCl], the “Inhibition factor (IF)” value is 9 in experiment [1] (setting [8]), 27 in experiment [1] (setting [6]) and 45 in experiment [1] (setting [7]).
As for `CN(C)[C@@H]1C(O)=C(C(N)=O)C(=O)[C@@]2(O)C(O)=C3C(=O)c4c(O)cccc4[C@@](C)(O)[C@H]3C[C@@H]12` [tetracycline HCl], the “Inhibition factor (IF)” value is 3 in experiment [1] (setting [6]) and 8 in experiment [1] (setting [7]).
For the molecule `CC(C)(S)[C@@H](N)C(=O)O` [D-penicillamine], the “disease recurrencies (mean clinical score), chronic relapsing EAE” value with Biozzi AB/H mice is reported as “abrogated the disease recurrencies”. The same molecule showed an ID50 with gelatinase B [3] of 3 mg/L (≈ 20.1 µM). In addition, the “development of disease symptoms (mean disability index), acute EAE” value with SJL mice is given as “complete blockage; also recorded: inhibits in a dose-dependent way the development of disease symptoms”. On Gelatinase B [4], the “inhibition of Gelatinase B in cerebrospinal fluid” value was “inhibited in a dose-dependent way”. Moreover, the “inhibition of Gelatinase A in cerebrospinal fluid” value at Gelatinase A is listed as “inhibited in a dose-dependent way”. Moreover, in experiment [5], the “spontaneous and induced levels of gelatinase B protein and mRNA” value is given as “remained constant”.
Take 7-aminominocycline HCl: the “Inhibition factor (IF)” value in experiment [1] (setting [7]) is on record as “precipitation”.
Still for that read-out and setting: in the case of `Cc1c2c(c(O)c3c(O)cccc13)C(=O)[C@]1(O)C(=O)C(C(N)=O)=C(O)[C@H](N(C)C)[C@@H]1C2` [4-epianhydrotetracycline HCl] it was “precipitation”; in that of `CN(C)c1ccc(O)c2c1C[C@H]1C[C@H]3[C@@H](N(C)C)C(O)=C(C(N)=O)C(=O)[C@@]3(O)C(O)=C1C2=O` [4-epiminocycline HCl], 3.
